These results are taken from patent US4879277A, “Antiviral compositions and methods” (The United States of America as represented by the …, priority 1987, dated 1989).

Series [1] concerns HIV. The series is described as follows: In vitro inhibition of the cytopathic effect of HIV in ATH8 cells. The series is classed as cell-based, human immunodeficiency virus. The text has this: ATH8 cells (2×10^5) were pre-exposed to polybrene, and exposed to HIV in culture tubes (2,000 virus particles per cell), in the presence or absence of various concentrations of 2',3'-dideoxycytidine (ddC).
(§1) Of critical importance to the biological activation of the 2',3'-dideoxycytidine analogues inside human cells, both as antiviral and as antitumor agents, is their anabolic conversion to nucleotides inside cells. This cannot be assumed to occur because not all nucleoside analgoues can be adequately phosphorylated. The ability of HIV-infected human T-lymphoblasts to phosphorylate 2',3'-dideoxycytidine nucleoside (ddCyd) was tested. […] The incubation was terminated after 24 hours of drug exposure, and the TCA-soluble fraction of the cell lysate was resolved on HPLC, utilizing a radial compression column of Partisil-10 SAX with a gradient of ammonium phosphate.

The next series deals with HIV-infected ATH8 cells. On the procedure:
as §1

The subject of series [2] is HIV. The series is described as follows: In vitro inhibition of infectivity and replication of HIV (p24 gag expression in H9 cells). The series is classed as cell-based. On the procedure: The in vitro inhibition of the infectivity and replication of the HIV virus by ddC was also tested. The results are shown in FIG. 4-B. In this test, 10^5 H9 cells were exposed to various concentrations of ddC for 4 hours, then to 2 ug/ml polybrene for 30 minutes, pelleted, and then exposed to HIV (3,000 virus particles/cell) for 1.5 hours. Cells were resuspended in fresh complete medium and cultured in tubes at 37° C. in 5% CO2 -containing humidified air, and under conditions in which the cells were continuously exposed to ddC. On days 8 (left), 9 (middle), and 10 (right) in culture, the percentage of the target H9 cells expressing p24 gag protein of HIV was determined by indirect immunofluorescence microscopy by using anti-HIV p24 murine monocolonal antibody.

The test system of series [3] is T4 cells. Kind of series: T4 cell number and T4/T8 ratio in AIDS patients receiving ddC. Format: in vivo, human. To be noted: for T4/T8 Ratio, Start Treatment / T4/mm3, Start Treatment: start of treatment. The text has this: (§2) The efficacy of the application of 2',3'-dideoxycytidine in human use is shown graphically in Table I, where the absolute number of T4 cells and the T4/T8 ratio both show an increase in the T cells, indicating improvements of the immune system in patients with AIDS and its related conditions following therapy. […] It has also been shown that the circulating p24 antigen-level (a measure of viral replication in a patient's body) falls, following treatment with these compositions.
*Patients 1 and 2 received one dose of ddC every 8 hours, and patient 3
received one dose every 4 hours. Patient 1 received intravenous (IV)
dosing throughout; patient 2 received IV dosing for 21 days, followed by
oral dosing; patient 3 received IV dosing throughout. IV dosing was given
as 1 hour infusions. For oral dosing, the ddC was administered dissolved
in 0.1 ml of 0.9% sodium chloride solution and approximately 100 ml of
orange juice. Each patient received a 1 hour intravenous infusion (test
dose) of ddC two days prior to the initiating of dosing.

A further series relates to PBM + PHA. The series is described as follows: In vitro immune reactivity of PBM stimulated with PHA (3H-uridine incorporation). The settings on record: 72 hours, control (None) 82 ± 1. The series is classed as cell-based, human. On the procedure: (§3) 5×10^4 normal helper/inducer TM3 cells were stimulated with tetanus toxoid (0.6 limiting flocculation units/ml) plus 10^5 irradiated (4,000 rad) autologous peripheral blood mononuclear cells (PBM) as a source of accessory cells, and were cultured for 72 hours in the presence or absence of ddC. After exposure to uCi ^3 H-uridine for the final 5 hours, cells were harvested onto glass fibers and the incorporated radioactivity was counted. Data are expressed as the arithmetic mean counts per minute (×10^3)±1 standard deviation triplicate determinations. 10^6 PBM from a healthy individual were stimulated with phytohaemagglutinin (PHA) or pokeweek mitogen (PWM) and cultured for 72 hours, and treated as described above. ^3 H-uridine incorporation was used as an indicator of activiation of the responder cells.

For the next series, the system named is T cells. The series is described as follows: Safety to T cells (studies of anabolic phosphorylation on human cells). The series is classed as cell-based. The settings on record: comparable dosages.
Series [4] deals with T4 cells. Kind of series: T4 cell number and T4/T8 ratio in AIDS patients receiving ddC. The settings on record: patient 2, 0.03 mg/kg every 8 hours, IV then oral, 19 days receiving ddC. Format: in vivo, human.
Series [5] is described as follows: Toxicity observed in humans likely due to ddC administration. Format: in vivo, human. The text has this:
Toxicity toward humans has been shown by the observation residing in Table II.
Toxicity Observed Which is
Likely to be Due to ddC Administration

Series [6] relates to Human T4^+ T lymphocytes (ATH8 cell line). The series is described as follows: Anabolism of ddCyd by human T4+ T lymphocytes (intracellular concentration). The series is classed as in vitro ADME. The settings on record: ATH8 cells exposed to 1 uM ddCyd for 24 hours. On the procedure:
* After incubation with ^3 Hlabelled 2',3dideoxycytidine (ddCyd) (1
exchange HPLC using radial compression columns of PartisilSAX equilibrate
phosphate, pH 3.8. ddCMP, 2',3dideoxycytidine-5monophosphate; ddCDP,

The next series has as its system PBM + PWM. The series is described as follows: In vitro immune reactivity of PBM stimulated with PWM (3H-uridine incorporation). The series is classed as cell-based, human. The settings on record: 72 hours, control (None) 24 ± 1. On the procedure: as §3
The next series relates to cytidine deaminase. Kind of series: Sensitivity to cytidine deaminase. Format: in vitro ADME.
In the next series the test system is HIV p24 antigen. Kind of series: Circulating HIV p24 antigen level in patients. The series is classed as in vivo, human immunodeficiency virus. The settings on record: following treatment.
From the text: as §2
levels in the blood after one to two weeks of treatment.

The next series concerns Clone TM 3. The series is described as follows: In vitro immune reactivity of normal helper/inducer TM3 cells (3H-uridine incorporation). To be noted: 72 hours, tetanus toxoid, control (None) 12 ± 1. The series is classed as cell-based, human.
Another series relates to normal lymphocytes. On the procedure:
as §3

The mark [7] stands for this setting: Example 7, concentration (uM) figure not given.
Where [8] appears, read: AIDS patients, following therapy.
Where [9] appears, read: patient 1, 0.25 mg/kg every 8 hours IV, 8 days receiving ddC.
[10] abbreviates: patient 1, 0.25 mg/kg every 8 hours IV.
[11] abbreviates: patient 2, 0.03 mg/kg every 8 hours, IV then oral.
[12] abbreviates: patient 3, 0.03 mg/kg every 4 hours IV, 12 days receiving ddC.
The mark [13] stands for this setting: patient 3, 0.03 mg/kg every 4 hours IV.
Where [14] appears, read: 0.03 mg/kg 3×/day intravenous for 12 days followed by 0.3 mg/kg 3×/day orally.

“Also recorded” adds a separate entry of the source.

Take `Nc1ccn([C@H]2C[C@H](O)[C@@H](CO)O2)c(=O)n1` [dCYD, reference compound]: the “reversal of the anti-HIV effect of ddCyd” value in the series with HIV [1] (dCYD with ddCyd) is “reverses the anti-HIV effect of ddCyd”. Further, the “phosphorylation of ddCYD” value in the series on HIV-infected ATH8 cells (dCYD (5 uM) added together with ddCYD) is given as “phosphorylation was blocked”.

Consider `Nc1ccn([C@H]2CC[C@@H](CO)O2)c(=O)n1` [ddC, 2',3'-dideoxycytidine], for which, in the series with HIV [2] (1 uM ddCyd), the “inhibition of the infectivity of the virus” value amounted to 100% and the “inhibition of the replication of the virus” value was found to be 100%. In the series on HIV [2] (setting [7]), the “inhibition of the viral p24 expression” value is given as “virtually complete inhibition”. Further, the “inhibition of the infectivity and replication of HIV” value in the series with HIV [2] (H9 cells, p24 gag expression, days 8, 9, 10, 3,000 virus particles/cell, FIG. 4-B) was “almost complete inhibition”. Besides, in the series with T4 cells [3] (setting [8]), the “T4/T8 ratio (change)” value was “increase” and the “absolute number of T4 cells” value was “increase”. In the series on T4 cells [3] (setting [9]), the “T4/T8 Ratio, End Treatment” value turned out to be 0.40 and the “T/mm3, End Treatment” value was 530 /mm3. For the same molecule, in the series with T4 cells [3] (setting [10]), the “T4/T8 Ratio, Start Treatment” value was 0.20 and the “T4/mm3, Start Treatment” value is 309 /mm3. Besides, in the series with T4 cells [3] (setting [11]), the “T4/T8 Ratio, Start Treatment” value stood at 0.39 and the “T4/mm3, Start Treatment” value is recorded as 260 /mm3. Moreover, in the series with T4 cells [3] (setting [12]), the “T4/T8 Ratio, End Treatment” value was 0.51 and the “T/mm3, End Treatment” value is on record as 307 /mm3. In addition, in the series with T4 cells [3] (setting [13]), the “T4/T8 Ratio, Start Treatment” value was 0.26 and the “T4/mm3, Start Treatment” value was 246 /mm3. The “inhibition of the cytopathic effect of the virus” value with HIV [1] (1 uM ddCyd) is reported as 100%. Besides, the “inhibition of the cytopathic effect of HIV” value with HIV [1] (ATH8 cells, day 5, 2,000 virus particles per cell, FIG. 4-A) is given as “almost complete inhibition”. The “inhibition of the cytopathic effect of HIV” value in the series on HIV [1] (setting [7]) was “virtually complete inhibition”. Also, the “mean counts per minute (×10^3) ± 1 standard deviation, 3H-uridine incorporation” value in the series with PBM + PHA (1 uM ddC) is recorded as 101 ± 1 counts per minute (×10^3). In addition, the “mean counts per minute (×10^3) ± 1 standard deviation, 3H-uridine incorporation” value in the series on PBM + PHA (10 uM ddC) is 86 ± 3 counts per minute (×10^3). Moreover, in the series on T cells, the “safety to T cells” value was “safe and non-lethal to T cells”. For the same molecule, in the series on T4 cells [4], the “T4/T8 Ratio, End Treatment” value is 0.47 and the “T/mm3, End Treatment” value is 326 /mm3. Further, in series [5] (setting [14]), the “Tolerated for up to, without significant toxicity in some patients” value is recorded as “up to 40 days”; the “minor toxicity in one patient” value was “skin rash and oral ulcers”. Further, in series [5] (0.03 mg/kg 6×/day intravenous for 14 days, followed by 0.03 mg/kg 6×/day orally), the “Tolerated for up to, without significant toxicity” value is recorded as “up to 18 days”. The Toxicity entry in series [5] (0.25 mg/kg 3×/day intravenous) was “Thrombocytopenia; also recorded: skin rash”. The “platelets, before drop” value in series [5] (0.25 mg/kg 3×/day intravenous, dropped from) is 234,000 /mm^3. Moreover, in series [5] (0.25 mg/kg 3×/day intravenous, dropped to), the “platelets, after drop” value is reported as 68,000 /mm^3. Also, in [5] (humans), the minor toxicities entry is “skin rash and aphthous stomatitis”; the “toxic effect in humans” value was “bone marrow suppression (decreased platelets)”. Besides, the “toxicity in some patients with prolonged administration” value in series [5] (some patients, prolonged administration) is listed as “small fiber peripheral neuropathy”. Also, in series [6], the “Intracellular concentration of ddCDP” value was determined as 1.20 µM, the “Intracellular concentration of ddCDPch” value was found to be 1.10 µM, the “Intracellular concentration of ddCMP” value was found to be 2.10 µM and the “Intracellular concentration of ddCTP” value was 0.5 µM. In addition, in [6], the “Intracellular concentration of ddCyd” value was 6.40 µM. In addition, in the series with PBM + PWM (1 uM ddC), the “mean counts per minute (×10^3) ± 1 standard deviation, 3H-uridine incorporation” value is listed as 23 ± 3 counts per minute (×10^3). In addition, in the series with PBM + PWM (10 uM ddC), the “mean counts per minute (×10^3) ± 1 standard deviation, 3H-uridine incorporation” value is recorded as 15 ± 3 counts per minute (×10^3). In addition, the “sensitivity to cytidine deaminase” value in the series with cytidine deaminase is “not sensitive to cytidine deaminase”. Moreover, the “circulating p24 antigen-level” value with HIV p24 antigen is reported as “falls”. In the series on HIV-infected ATH8 cells, the “difference between uninfected and HIV-infected ATH8 cells in ability to phosphorylate ddCYD” value is “No significant qualitative or quantitative differences”. Also, the “mean counts per minute (×10^3) ± 1 standard deviation, 3H-uridine incorporation” value with Clone TM 3 (1 uM ddC) is recorded as 13 ± 1 counts per minute (×10^3). The “mean counts per minute (×10^3) ± 1 standard deviation, 3H-uridine incorporation” value with Clone TM 3 (10 uM ddC) is 8 ± 1 counts per minute (×10^3). Moreover, the harm to cells result with normal lymphocytes is given as “not harmed by drug concentrations that exceed the virustatic dose”.
